# Values quoted from earlier work as cited in patent publication EP3290412A1, “HIV-1 NUCLEOCAPSID INHIBITORS” (Università degli Studi di Siena, priority 2016, dated 2018).
# System: NIH Catalogue Number: 11845
# Details: INI resistant strain 11845; cited from earlier work
structure (smiles),measurement,value
"COc1cc2c(cc1Cc1cccc(Cl)c1F)c(=O)c(C(=O)O)cn2[C@H](CO)C(C)C [Elvitegravir™, Elvitegravir]",Level of resistance,Intermediate
